Assay results: PubChem BioAssay AID256 (DTP/NCI, 2004)
Toxic doses and inconclusive results are not listed. Rule for the calls: active = survival T/C of 150% or more; inactive = T/C below 125% in these data.

System: CD2F1 mice, L1210 leukemia ip, survival T/C
Experiment: NCI In Vivo Anticancer Drug Screen. Data for tumor model L1210 Leukemia (intraperitoneal) in CD2F1 (CDF1) mice
Details: higher = longer survival
Outline: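 Transplantable tumor in mice; compound-treated vs vehicle-treated groups. Read-out = treated/control ratio of the measured endpoint.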

[1] = endpoint: mean survival time, dose: 100.0 mg/kg/injection, schedule: Q04DX002 (ip), vehicle: saline with Tween-80
[2] = endpoint: mean survival time, dose: 200.0 mg/kg/injection, schedule: Q04DX002 (ip), vehicle: saline with Tween-80
[3] = endpoint: mean survival time, dose: 400.0 mg/kg/injection, schedule: Q04DX002 (ip), vehicle: saline with Tween-80
[4] = endpoint: mean survival time, dose: 100.0 mg/kg/injection, schedule: Q01DX001 (ip), vehicle: carboxymethylcellulose (CMC)
[5] = endpoint: mean survival time, dose: 200.0 mg/kg/injection, schedule: Q01DX001 (ip), vehicle: carboxymethylcellulose (CMC)
[6] = endpoint: mean survival time, dose: 400.0 mg/kg/injection, schedule: Q01DX001 (ip), vehicle: carboxymethylcellulose (CMC)
[7] = endpoint: mean survival time, dose: 50.0 mg/kg/injection, schedule: Q04DX002 (ip), vehicle: saline with Tween-80
[8] = endpoint: mean survival time, dose: 100.0 mg/kg/injection, schedule: Q04DX003 (ip), vehicle: saline with Tween-80
[9] = endpoint: mean survival time, dose: 200.0 mg/kg/injection, schedule: Q04DX003 (ip), vehicle: saline with Tween-80
[10] = endpoint: mean survival time, dose: 400.0 mg/kg/injection, schedule: Q04DX003 (ip), vehicle: saline with Tween-80
[11] = endpoint: mean survival time, dose: 50.0 mg/kg/injection, schedule: Q01DX009 (ip), vehicle: saline with Tween-80
[12] = endpoint: mean survival time, dose: 100.0 mg/kg/injection, schedule: Q01DX009 (ip), vehicle: saline with Tween-80
[13] = endpoint: mean survival time, dose: 200.0 mg/kg/injection, schedule: Q01DX009 (ip), vehicle: saline with Tween-80
[14] = endpoint: mean survival time, dose: 12.5 mg/kg/injection, schedule: Q01DX009 (ip), vehicle: saline with Tween-80
[15] = endpoint: mean survival time, dose: 25.0 mg/kg/injection, schedule: Q01DX009 (ip), vehicle: saline with Tween-80
[16] = endpoint: mean survival time, dose: 12.5 mg/kg/injection, schedule: Q01DX009 (ip), vehicle: Klucel (hydroxypropylcellulose) (HPC)
[17] = endpoint: mean survival time, dose: 25.0 mg/kg/injection, schedule: Q01DX009 (ip), vehicle: Klucel (hydroxypropylcellulose) (HPC)
[18] = endpoint: mean survival time, dose: 50.0 mg/kg/injection, schedule: Q01DX009 (ip), vehicle: Klucel (hydroxypropylcellulose) (HPC)
[19] = endpoint: mean survival time, dose: 25.0 mg/kg/injection, schedule: Q04DX003 (ip), vehicle: saline with Tween-80
[20] = endpoint: mean survival time, dose: 50.0 mg/kg/injection, schedule: Q04DX003 (ip), vehicle: saline with Tween-80

Measured: T/C

O=c1[nH]c(=O)n(C(c2ccccc2)(c2ccccc2)c2ccccc2)cc1N(CCO)CCO
inactive: endpoint: mean survival time, dose: 50.0 mg/kg/injection, schedule: Q01DX001 (ip), vehicle: saline 91 % of control | endpoint: mean survival time, dose: 100.0 mg/kg/injection, schedule: Q01DX001 (ip), vehicle: saline 100 % of control | endpoint: mean survival time, dose: 200.0 mg/kg/injection, schedule: Q01DX001 (ip), vehicle: saline 87 % of control | endpoint: mean survival time, dose: 400.0 mg/kg/injection, schedule: Q01DX001 (ip), vehicle: saline 91 % of control

C1=CC2C3=CC1C=CC32 (configuration not stated)
inactive: endpoint: mean survival time, dose: 100.0 mg/kg/injection, schedule: Q01DX009 (ip), vehicle: acetone 92 % of control | endpoint: mean survival time, dose: 200.0 mg/kg/injection, schedule: Q01DX009 (ip), vehicle: acetone 95 % of control

O=C(c1ccccc1)c1ccc2cc(O)ccc2c1
inactive: endpoint: mean survival time, dose: 100.0 mg/kg/injection, schedule: Q01DX001 (ip), vehicle: saline with Tween-80 102 % of control | [1] 94 % of control | endpoint: mean survival time, dose: 200.0 mg/kg/injection, schedule: Q01DX001 (ip), vehicle: saline with Tween-80 92 % of control | [2] 90 % of control | endpoint: mean survival time, dose: 400.0 mg/kg/injection, schedule: Q01DX001 (ip), vehicle: saline with Tween-80 96 % of control | [3] 86 % of control

CS(=O)(=O)OC1CS(=O)(=O)Cc2ccccc21 (configuration not stated)
inactive: [4] 101 % of control | [5] 101 % of control | [6] 101 % of control

CCC1OC(OC)C=CC1=O (configuration not stated)
inactive: endpoint: median survival time, dose: 12.5 mg/kg/injection, schedule: Q01DX009 (ip), vehicle: saline 100 % of control | endpoint: median survival time, dose: 25.0 mg/kg/injection, schedule: Q01DX009 (ip), vehicle: saline 102 % of control | endpoint: median survival time, dose: 50.0 mg/kg/injection, schedule: Q01DX009 (ip), vehicle: saline 105 % of control | endpoint: median survival time, dose: 100.0 mg/kg/injection, schedule: Q01DX009 (ip), vehicle: saline 102 % of control

C[Si](C)(C)Oc1ccc(OCc2ccccc2)cc1
inactive: [7] 87 % of control | [1] 87 % of control | [2] 95 % of control | [3] 95 % of control

CN(C)C(=O)Nc1cccc(OP(=O)(N(C)C)N(C)C)c1
inactive: [8] 103 % of control | [9] 97 % of control | [10] 99 % of control

O=C(O)C(CSC(c1ccccc1)(c1ccccc1)c1ccccc1)NC(c1ccccc1)(c1ccccc1)c1ccccc1 (configuration not stated)
inactive: endpoint: mean survival time, dose: 75.0 mg/kg/injection, schedule: Q01DX001 (ip), vehicle: other 97 % of control

CC(=O)CC(OC(C)=O)(C(F)(F)F)C(F)(F)F
inactive: endpoint: mean survival time, dose: 25.0 mg/kg/injection, schedule: Q04DX002 (ip), vehicle: saline 98 % of control | endpoint: mean survival time, dose: 50.0 mg/kg/injection, schedule: Q04DX002 (ip), vehicle: saline 102 % of control | endpoint: mean survival time, dose: 100.0 mg/kg/injection, schedule: Q04DX003 (ip), vehicle: Klucel (hydroxypropylcellulose) (HPC) 90 % of control

Cc1ccc(NC(=O)OCCOc2ccc(Cl)cc2)cc1[N+](=O)[O-]
inactive: [11] 96 % of control | [12] 88 % of control | [13] 88 % of control

O=C(Nc1ccc(Cl)c(Cl)c1)Nc1c(Oc2ccc(Cl)c(Cl)c2)ccc(Cl)c1S(=O)(=O)O
inactive: endpoint: mean survival time, dose: 3.12 mg/kg/injection, schedule: Q01DX009 (ip), vehicle: saline with Tween-80 109 % of control | endpoint: mean survival time, dose: 6.25 mg/kg/injection, schedule: Q01DX009 (ip), vehicle: saline with Tween-80 109 % of control | [14] 110 % of control | [15] 113 % of control | [11] 104 % of control | [12] 113 % of control | [8] 108 % of control | [9] 101 % of control

O=NN(CCCl)C(=O)Nc1ccc2c(c1)OCO2
active: endpoint: mean survival time, dose: 44.0 mg/kg/injection, schedule: Q01DX001 (ip), vehicle: other 156 % of control | endpoint: mean survival time, dose: 66.0 mg/kg/injection, schedule: Q01DX001 (ip), vehicle: other 216 % of control | endpoint: mean survival time, dose: 100.0 mg/kg/injection, schedule: Q01DX001 (ip), vehicle: other 277 % of control | endpoint: mean survival time, dose: 150.0 mg/kg/injection, schedule: Q01DX001 (ip), vehicle: other 171 % of control

COc1cc(OC)c(NC(=O)Nc2ccc(SCC(=O)O)cc2)cc1Cl
inactive: [11] 93 % of control | [12] 89 % of control | [13] 86 % of control

CCOC(=O)Nc1ccc(C(=O)O)c(O)c1
inactive: [8] 96 % of control | [9] 96 % of control | [10] 100 % of control

CC1(C)C/C(=C\c2ccc([N+](=O)[O-])cc2)C(=O)c2ccccc21
inactive: [16] 102 % of control | [17] 98 % of control | [18] 96 % of control | endpoint: mean survival time, dose: 100.0 mg/kg/injection, schedule: Q01DX009 (ip), vehicle: Klucel (hydroxypropylcellulose) (HPC) 98 % of control | endpoint: mean survival time, dose: 200.0 mg/kg/injection, schedule: Q01DX009 (ip), vehicle: Klucel (hydroxypropylcellulose) (HPC) 93 % of control | endpoint: mean survival time, dose: 400.0 mg/kg/injection, schedule: Q01DX009 (ip), vehicle: Klucel (hydroxypropylcellulose) (HPC) 94 % of control

O=C1OC(O)C(Cl)=C1Cl (configuration not stated)
inactive: endpoint: mean survival time, dose: 100.0 mg/kg/injection, schedule: Q04DX002 (ip), vehicle: Klucel (hydroxypropylcellulose) (HPC) 103 % of control | endpoint: mean survival time, dose: 200.0 mg/kg/injection, schedule: Q04DX002 (ip), vehicle: Klucel (hydroxypropylcellulose) (HPC) 91 % of control | endpoint: mean survival time, dose: 400.0 mg/kg/injection, schedule: Q04DX002 (ip), vehicle: Klucel (hydroxypropylcellulose) (HPC) 97 % of control

CC1(C)SC(C(NC(=O)COc2ccccc2)C(=O)O)NC1C(=O)O (configuration not stated)
inactive: [8] 97 % of control | [9] 97 % of control

CCCOC(=O)OCCC
inactive: [19] 102 % of control | [20] 96 % of control | [12] 97 % of control | [8] 94 % of control | [13] 95 % of control | [9] 94 % of control | endpoint: mean survival time, dose: 400.0 mg/kg/injection, schedule: Q01DX009 (ip), vehicle: saline with Tween-80 104 % of control | [10] 96 % of control

CC1(C)CCC(C#N)=C1N
inactive: endpoint: mean survival time, dose: 12.5 mg/kg/injection, schedule: Q04DX003 (ip), vehicle: saline with Tween-80 97 % of control | [19] 97 % of control | [20] 91 % of control

Cc1ccc(NC(=O)Nc2ccccc2C(N)=O)cc1C
inactive: [14] 95 % of control | [15] 102 % of control | [11] 95 % of control | [12] 92 % of control | [13] 92 % of control

CCC1(O)C(=O)OCc2c1cc1n(c2=O)Cc2cc3ccc(C(=O)OC)cc3nc2-1 (configuration not stated)
inactive: endpoint: median survival time, dose: 10.0 mg/kg/injection, schedule: Q04DX002 (ip), vehicle: saline with Tween-80 107 % of control | endpoint: median survival time, dose: 20.0 mg/kg/injection, schedule: Q04DX002 (ip), vehicle: saline with Tween-80 100 % of control | endpoint: median survival time, dose: 40.0 mg/kg/injection, schedule: Q04DX002 (ip), vehicle: saline with Tween-80 106 % of control | endpoint: median survival time, dose: 80.0 mg/kg/injection, schedule: Q04DX002 (ip), vehicle: saline with Tween-80 107 % of control

N#CS.[Co+3].[NH-]CC[NH-].[NH-]CC[NH-].[NH-]CC[SH2+]
inactive: endpoint: mean survival time, dose: 100.0 mg/kg/injection, schedule: Q04DX002 (ip), vehicle: saline 112 % of control | endpoint: mean survival time, dose: 200.0 mg/kg/injection, schedule: Q04DX002 (ip), vehicle: saline 104 % of control | endpoint: mean survival time, dose: 400.0 mg/kg/injection, schedule: Q04DX002 (ip), vehicle: saline 108 % of control

O=C1C2C3C=CC(C3)C2C(=O)N1O (configuration not stated)
inactive: endpoint: mean survival time, dose: 50.0 mg/kg/injection, schedule: Q01DX001 (ip), vehicle: carboxymethylcellulose (CMC) 106 % of control | [4] 100 % of control | [5] 112 % of control | [6] 96 % of control

c1ccc2c(c1)CC1CCCCN1C2 (configuration not stated)
inactive: [16] 94 % of control | endpoint: mean survival time, dose: 12.5 mg/kg/injection, schedule: Q04DX003 (ip), vehicle: saline 95 % of control | [17] 100 % of control | endpoint: mean survival time, dose: 25.0 mg/kg/injection, schedule: Q04DX003 (ip), vehicle: saline 93 % of control | [18] 97 % of control | endpoint: mean survival time, dose: 50.0 mg/kg/injection, schedule: Q04DX003 (ip), vehicle: saline 95 % of control

Cc1ccc(NC(=O)Nc2ccccc2F)cc1NC(=O)Nc1ccccc1F
inactive: [8] 100 % of control | [9] 104 % of control | [10] 100 % of control

C/C=C/C=C/C(=O)c1ccc(OC)cc1O
inactive: [7] 86 % of control | [1] 101 % of control | [2] 89 % of control | [3] 89 % of control
